Patent US20120060834A1, “PHARMACEUTICAL PREPARATION TO BE ADMINISTERED INTO RESPIRATORY ORGANS FOR TREATING OR PREVENTING INFLAMMATORY RESPIRATORY DISEASES, AND METHOD FOR TREATING OR PREVENTING SUCH DISEASES” (Postech Academy-Industry Foundation, priority 2009, published 2012)

What was measured:
[1] = system: asthma animal model exhibiting TH1+TH17 immune responses; experiment: Therapeutic efficacy of WKYMVm upon systemic administration by intraperitoneal injection in asthma mouse model; type: in vivo, BALB/c mice
Description: This sensitization was performed on Day 0, 1, 2 and 7. […] Meanwhile, the mice of the positive control were intraperitoneally administered with the same dose of phosphate-buffered saline (PBS). For a negative control, the sensitization on Day 0, 1, 2 and 7 and the challenge on Day 14, 15, 21, and 22 were conducted in the same manner as in the positive control, except that PBS was used instead of the allergen. […]
(§1) Pulmonary inflammation was examined 6 hours (Day 22) and 48 hours (Day 24) after the final administration of the allergen. On Days 22 and 24, after mice were anesthetized by intraperitoneally injecting a mixture of ketamine and xylazine thereto, they were subjected to thoracotomy to expose the trachea into which a catheter was then inserted. After suturing the mice, 1 mL of germ-free PBS was infused twice to wash the airway to give bronchoalveolar lavage fluid (hereinafter referred to as “'BAL fluid”). For analyzing T-lymphocytes in lung tissues, the lung was excised and cells were extracted from local lymph nodes.
(§2) Following centrifugation of the BAL fluid at 3000 rpm and at 4° C. for 10 min, the cell pellet thus formed was suspended in PBS, and rolled on slide using a cytospin and stained with Diff
(§3) Quick. More than 300 inflammatory cells were observed under an optical microscope with […] magnification to determine cell counts by cell types, that is, macrophage, lymphocyte, neutrophil, and eosinophil. In the BAL fluid, the cytokines involved in Th1-mediated inflammation, such as gamma interferon, interferon-g-inducible protein 10 (IP-10), and IL-12, the cytokines involved in Th2-mediated inflammation, such as interleukin IL-4 and IL-13, the cytokines involved in Th17-mediated inflammation, such as IL-17, TNF-α and IL-6, and the cytokines involved in Th2- and Th17-mediated inflammation, such as TGF-13, were quantified using ELISA.
(§4) The excised pulmonary tissue was treated with collagenase type IV (Sigma) to separate cells therefrom. The cells were surface stained with anti-CD3, anti-CD4, and anti-CD8 antibodies (BD Pharmingen), all being conjugated with a fluorescent and the membrane was perforated with Triton, followed by intracellular cytokine staining with anti-IFN-γ, anti-IL-17, anti-IL-10 and anti-IL-4 antibodies. Types of the T lymphocytes introduced into the lung were analyzed using the fluorescence activated cell scanner FACSCalibur (Becton Dickinson).
(§5) After the cells extracted from the lymph nodes were incubated for 72 hours in PBS containing 100 μg/ml OVA, gamma interferon, IL-17 and IL-4, which are the cytokines involved in Th1-, Th17- and Th2-mediated inflammation, were quantified using ELISA.

[2] = biological target: T1, FPR (formyl peptide receptor) (Homo sapiens, UniProt P21462); conditions: cited from earlier work
T1 sequence (P21462 1-350): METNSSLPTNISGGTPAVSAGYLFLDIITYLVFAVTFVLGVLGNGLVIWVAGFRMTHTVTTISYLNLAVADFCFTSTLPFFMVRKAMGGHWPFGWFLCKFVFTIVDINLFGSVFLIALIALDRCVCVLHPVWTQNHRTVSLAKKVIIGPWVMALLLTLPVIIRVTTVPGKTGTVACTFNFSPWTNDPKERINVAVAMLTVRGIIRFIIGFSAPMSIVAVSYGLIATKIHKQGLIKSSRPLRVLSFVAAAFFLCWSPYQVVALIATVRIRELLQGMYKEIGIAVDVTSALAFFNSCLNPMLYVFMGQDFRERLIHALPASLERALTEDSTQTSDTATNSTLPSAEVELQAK

[3] = system: asthma animal model exhibiting TH1+TH17 immune responses; experiment: Therapeutic efficacy of WKYMVm upon intranasal administration in asthma mouse model; type: in vivo, BALB/c mice
Description: This sensitization was performed on Day 0, 1, 2 and 7. […] Meanwhile, the mice of the positive control were intraperitoneally administered with the same dose of phosphate-buffered saline (PBS). For a negative control, the sensitization on Day 0, 1, 2 and 7 and the challenge on Day 14, 15, 21, and 22 were conducted in the same manner as in the positive control, except that PBS was used instead of the allergen.
Twenty four hours after the final administration of the allergen (Day 23), the mice were examined for bronchial hypersensitivity to methacholine. In this context, the mice were placed in a chamber and allowed to inhale PBS for 3 min with the aid of a nebulizer, followed by measuring penh (enhanced pause) values for 3 min by means of non-invasive whole body plethysmography (Allmedicus, Korea). Likewise, the mice were allowed to inhale 6.25, 12.5, 25 and 50 mg/ml methacholine PBS sequentially, after which penh values for each concentration were measured. A mean of the penh values measured for 3 min was used as an index of airway obstruction.
as §1, §2, §3, §4, §5
The assay was performed in the same manner as in the Comparative Example, except that WKYMVm was administered intranasally instead of intraperitoneally. […] The other procedure was performed in the same manner as in the Comparative Example.

Substance: Trp-Lys-Tyr-Met-Val-D-Met-CONH2 [WKYMVm]
- inflammatory cell count in BAL fluid ([1]; i.p. 4 mg/kg, Day 22, 6 hours after final allergen, vs sham (positive control), FIG. 2): increase
- release of gamma interferon by inflammatory cells separated from pulmonary tissue ([1]; i.p. 4 mg/kg, Day 22, FIG. 3a): increased
- level of IP-10 in BAL fluid ([1]; i.p. 4 mg/kg, Day 22, FIG. 3b): increased levels
- level of IL-12p40 in BAL fluid ([1]; i.p. 4 mg/kg, Day 22, FIG. 3c): increased levels
- number of IL-17-expressing CD4+ T cells from pulmonary tissues ([1]; i.p. 4 mg/kg, Day 22, FIG. 4a): increase in number
- level of IL-17 released to BAL fluid ([1]; i.p. 4 mg/kg, Day 22, FIG. 4b): increase
- level of IL-6 in BAL fluid ([1]; i.p. 4 mg/kg, Day 22, FIG. 5a): increased levels
- level of TNF-α in BAL fluid ([1]; i.p. 4 mg/kg, Day 22, FIG. 5b): increased levels
- inflammatory cell count in BAL ([1]; i.p. 4 mg/kg, Day 24, 48 hours after final allergen, vs sham, FIG. 6): there was a difference
- level of IL-12p40 (ELISA) ([1]; i.p. 4 mg/kg, Day 24, vs sham, FIG. 7a): no significant differences
- level of TGF-β (ELISA) ([1]; i.p. 4 mg/kg, Day 24, vs sham, FIG. 7b): no significant differences
- pulmonary/respiratory inflammation (overall conclusion) ([1]; systemic (intraperitoneal) administration): did not ameliorate
- binding to FPR [2]: known to bind
- suppressive effects on bronchial hypersensitivity and pulmonary inflammation ([3]; direct administration via the nasal cavity compared with systemic administration): higher suppressive effects
- inflammatory cell count of BAL fluid ([3]; intranasal 200 μg/kg, Day 22, 6 hours after allergen, vs sham (positive control), FIG. 8): no differences
- release of gamma interferon by immune cells separated from local lymph nodes (in vitro) ([3]; intranasal 200 μg/kg, Day 22, vs positive control, FIG. 9a): higher level
- gamma interferon-expressing CD4+ T cells from pulmonary tissue (count) ([3]; intranasal 200 μg/kg, Day 22, vs positive control, FIG. 9b): higher
- level of gamma interferon in BAL fluid ([3]; intranasal 200 μg/kg, Day 22, vs positive control, FIG. 9c): reduced
- IL-17 released by local lymph node immune cells stimulated in vitro with allergen ([3]; intranasal 200 μg/kg, Day 22, vs positive control, FIG. 10): higher amount
- IL-17-expressing CD4+ T cells from pulmonary tissues (count) ([3]; intranasal 200 μg/kg, Day 22, vs positive control, FIG. 10b): more numerous
- level of IL-17 in BAL fluid ([3]; intranasal 200 μg/kg, Day 22, vs positive control, FIG. 10c): reduced
- expression of Th2 cytokines in T cells of pulmonary tissues ([3]; intranasal 200 μg/kg, Day 22, vs positive control, FIG. 11a): reduced
- expression level of IL-10 in T cells of pulmonary tissues ([3]; intranasal 200 μg/kg, Day 22, vs positive control, FIG. 11b): increased
- release of IP-10 in BAL fluid ([3]; intranasal 200 μg/kg, Day 22, vs positive control, FIG. 12a): reduced
- release of IL-12p40 in BAL fluid ([3]; intranasal 200 μg/kg, Day 22, vs positive control, FIG. 12b): reduced
- release of TNF-α in BAL fluid ([3]; intranasal 200 μg/kg, Day 22, vs positive control, FIG. 12c): lower levels
- level of MCP-1 in BAL fluid ([3]; intranasal 200 μg/kg, Day 22, vs positive control, FIG. 12e): lower levels
- level of MIP-1a in BAL fluid ([3]; intranasal 200 μg/kg, Day 22, vs positive control, FIG. 12f): lower levels
- release of IL-1β in BAL fluid ([3]; intranasal 200 μg/kg, Day 22, vs positive control, FIG. 12d): lower levels
- release of IL-17 into BAL fluid ([3]; intranasal 200 μg/kg, Day 24, vs positive control, FIG. 15): increased
- release of TGF-β from inflammatory cells (BAL fluid) ([3]; intranasal 200 μg/kg, Day 24, vs positive control, FIG. 15b): significantly reduced
- level of IL-12p40 in BAL fluid ([3]; intranasal 200 μg/kg, Day 24, vs positive control, FIG. 16a): higher levels
- level of IP-10 in BAL fluid ([3]; intranasal 200 μg/kg, Day 24, vs positive control, FIG. 16b): higher levels
